Data on 1 molecule can be found in patent US8215314B2, “Photochemical tissue bonding” (The General Hospital Corporation, priority 2000, dated 2012).

For data set [1], the system named is bovine tendon / NeuraGen collagen conduit interface. Description: Tensile strength of PTB bond between NeuraGen conduit and bovine tendon. Conditions: RB dye, 532 nm, fluence of 150-300 Joules, 0.25 cm^2 interface. Here is the method:
Additional experiments were also performed to determine the effectiveness of PTB bonding between the NeuraGen™ conduits and an animal tissue, namely bovine tendon tissue. To do this, the tensile strength of a PTB bond formed between the bovine tendon and a segment of Neuregen™ conduit was tested, using various different photoactive dyes. Both the tendon surface and the inner surface of a piece of conduit were coated with RB dye and allowed to sit in the dark for 60 seconds. The two surfaces were then thoroughly dried and pressed together to form a tendon/conduit interface of approximately 0.25 cm^2. The construct was irradiated at 532 nm through the conduit toward the tendon/conduit interface at various fluence levels (Joules). Constructs were then pulled into tension using a tensiometer until the bond between the tendon and the conduit broke. The breaking force was measured in Newtons.

The subject of the next data set is esophageal keratinocytes. Description: NADH-diaphorase viability of esophageal keratinocytes after PTB. The format is cell-based. Here is the method: The viability of the photoactivated cells was also assessed. Nicotinamide adenine dinucleotide (NADH-diaphorase) staining was carried out based on the methods described by Heisterkamp J et al. (1999) Lasers Sug Med 25(3): 257-62 and Neumann R A et al. (1991) J Am Acad Dermatol 25: 991-8. Following irradiation, the keratinocyte layer was gently peeled away from the collagen gel and was exposed overnight to an incubation solution consisting of nicotinamide adenine dinucleotide (NADH) and nitroblue tetrazolium chloride (NBT) (Sigma). The viability of the cells was indicated by the formation of a water-insoluble blue precipitate (diformazan), which corresponded to areas with NADH-diaphorase activity. The insoluble blue precipitate was dissolved in DMSO (an organic solvent) and quantified by measuring the optical density (OD) at 550 nm against a commercially available standard. The negative control, RB control, and the laser control composites were also tested using identical conditions. It was determined for the negative control, RB control, laser control, 50 J/cm^2 composite sample, and the 100 J/cm^2 composite sample that the levels of corresponding blue precipitate were 143, 151, 158, 173 and 158 diformazan/nM after photochemical tissue bonding treatment (FIG. 16).

In the next data set the test system is pig vein and arteries. Description: Ex vivo porcine blood vessel anastomosis by PTB (cuff approach), tensile strength. Conditions: 0.1% v/v in saline, 532 nm, 0.5 W/cm2 for 2.5 minutes. The text has this: In adhering segments of vascular tissue according to methods of the invention, two pieces of blood vessel are joined and photochemically bonded together to create an intimate, watertight seal. Two methods were considered to accomplish anastomosis. The “cuff” approach, which entails administration of the photoactive dye to the outer surface of the proximal vessel and the inside surface of the distal stump of the vessel. The distal stump is folded back on itself and the proximal stump brought into contact. The distal cuff is then placed over the proximal vessel to form a cuff. The overlap region in the cuff is then irradiated with visible light to bond the ends of the vessel together. FIG. 30 represents a schematic overview of the cuff approach.
The cuff approach was used with pig vein and arteries ex vivo. The vessels were sharply transected using a scalpel. Rose bengal at a concentration of 0.1% v/v in saline was applied to the outside surface of the proximal stump of the vessel and the inside surface of the distal vessel. The vessels were then mounted over a cylindrical glass rod that acts as support for the hollow vessels. A distal cuff was formed by folding the end of the distal end back on itself, as described above and in FIG. 30. […]

SMILES strings stand for the structures.

As to `O=C([O-])c1c(Cl)c(Cl)c(Cl)c(Cl)c1-c1c2cc(I)c(=O)c(I)c-2oc2c(I)c([O-])c(I)cc12.[Na+].[Na+]` [Rose Bengal], in data set [1], the “bond between tendon and conduit (breaking force)” value is “effective bond was formed”. Also, the “level of blue precipitate (NADH-diaphorase viability)” value in the data set with esophageal keratinocytes (0.1% RB, 50 J/cm^2) is given as 173 diformazan/nM; with esophageal keratinocytes (0.1% RB, 100 J/cm^2) it was 158 diformazan/nM; in the data set on esophageal keratinocytes (RB control: RB treated, nonirradiated), 151 diformazan/nM. The “stretch of anastomosed vessels before rupture” value in the data set on pig vein and arteries was 3-4 times their normal length.
